Assay results from article PMC3905599 (Chembiochem : a European journal of chemical biology, 2013).

Columns and labels:
[1] = biological target: P-glycoprotein (Homo sapiens, UniProt P08183); type: binding; conditions: for inhibition at 20 μM / inhibition at 10 μM: human, pH 7.5
[2] = biological target: human P-gp (Homo sapiens, UniProt P08183); test: Calcein-AM efflux; type: cell-based
[3] = system: P-gp; conditions: cited from earlier work
[4] = ongoing Phase III clinical trials; cited from earlier work

P-glycoprotein, sequence (P08183 whole entry): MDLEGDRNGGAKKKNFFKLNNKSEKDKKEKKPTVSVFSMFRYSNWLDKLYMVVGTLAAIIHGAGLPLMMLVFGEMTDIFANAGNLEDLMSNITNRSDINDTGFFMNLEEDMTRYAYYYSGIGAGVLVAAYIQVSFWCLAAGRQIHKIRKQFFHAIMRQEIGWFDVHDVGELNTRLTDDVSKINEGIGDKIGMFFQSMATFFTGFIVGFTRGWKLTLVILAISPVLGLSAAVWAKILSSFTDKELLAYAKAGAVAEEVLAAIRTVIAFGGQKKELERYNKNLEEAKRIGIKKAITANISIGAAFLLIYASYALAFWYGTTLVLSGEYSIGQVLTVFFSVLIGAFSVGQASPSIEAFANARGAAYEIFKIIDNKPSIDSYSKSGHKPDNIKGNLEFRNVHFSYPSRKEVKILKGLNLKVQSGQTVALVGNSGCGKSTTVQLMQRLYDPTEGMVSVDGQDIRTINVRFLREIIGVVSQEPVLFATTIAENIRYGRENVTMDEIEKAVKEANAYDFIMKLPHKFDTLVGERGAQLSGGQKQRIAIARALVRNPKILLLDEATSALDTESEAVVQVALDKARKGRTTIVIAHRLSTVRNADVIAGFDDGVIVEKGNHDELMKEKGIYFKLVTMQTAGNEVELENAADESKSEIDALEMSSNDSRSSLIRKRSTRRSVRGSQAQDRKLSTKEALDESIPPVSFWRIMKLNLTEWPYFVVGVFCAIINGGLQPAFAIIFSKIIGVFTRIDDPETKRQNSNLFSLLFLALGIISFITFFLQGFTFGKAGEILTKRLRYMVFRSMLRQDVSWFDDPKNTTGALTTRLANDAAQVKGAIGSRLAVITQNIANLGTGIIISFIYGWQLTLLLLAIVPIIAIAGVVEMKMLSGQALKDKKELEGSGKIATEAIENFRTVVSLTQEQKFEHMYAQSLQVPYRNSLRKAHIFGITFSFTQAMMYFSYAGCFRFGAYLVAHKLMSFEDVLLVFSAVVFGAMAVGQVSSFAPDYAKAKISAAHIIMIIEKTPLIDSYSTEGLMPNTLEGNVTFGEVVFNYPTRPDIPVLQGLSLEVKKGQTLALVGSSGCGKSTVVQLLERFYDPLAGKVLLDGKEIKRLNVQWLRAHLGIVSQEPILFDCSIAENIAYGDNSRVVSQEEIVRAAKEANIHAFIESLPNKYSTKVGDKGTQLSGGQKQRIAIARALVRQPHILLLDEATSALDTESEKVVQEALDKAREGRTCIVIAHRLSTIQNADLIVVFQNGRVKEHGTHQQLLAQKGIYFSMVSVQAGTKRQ
human P-gp, sequence (P08183 whole entry): as above

Compound | inhibition at 20 μM [1] | inhibition at 10 μM [1] | further results
CCOC(=O)c1csc([C@@H](NC(=O)OC(C)(C)C)C(C)C)n1 [Compound 5, (S)-2-(1-tert-Butoxycarbonylamino-2-methylpropyl)thiazole-4-carboxylic acid ethyl ester] | 20% | – | –
CC(C)[C@H](NC(=O)OC(C)(C)C)c1nc(C(=O)O)cs1 [Compound 6, (S)-2-(1-tert-Butoxycarbonylamino-2-methylpropyl)thiazole-4-carboxylic acid] | < 10% | – | –
CCOC(=O)c1csc([C@@H](N)C(C)C)n1 [Compound 7, (S)-2-(1-Amino-2-methylpropyl)thiazole-4-carboxylic acid ethyl ester] | < 10% | – | –
CC(C)[C@H](N)c1nc(C(=O)O)cs1 [Compound 8, (S)-2-(1-Amino-2-methylpropyl)thiazole-4-carboxylic acid] | < 10% | – | –
CCOC(=O)c1csc([C@@H](NC(=O)c2csc([C@@H](NC(=O)OC(C)(C)C)C(C)C)n2)C(C)C)n1 [Compound 9, (S)-2-(1-{[2-(1-tert-Butoxycarbonylamino-2-methylpropyl)thiazole-4-carbonyl]amino}-(S)-2-methylpropyl)thiazole-4-carboxylic acid ethyl ester] | 87% | – | IC50 [2]: 20 µM
CC(C)[C@H](NC(=O)OC(C)(C)C)c1nc(C(=O)N[C@H](c2nc(C(=O)O)cs2)C(C)C)cs1 [Compound 10, (S)-2-(1-{[2-(1-tert-Butoxycarbonylamino-2-methylpropyl)thiazole-4-carbonyl]amino}-(S)-2-methylpropyl)thiazole-4-carboxylic acid] | < 10% | – | –
CCOC(=O)c1csc([C@@H](NC(=O)c2csc([C@@H](N)C(C)C)n2)C(C)C)n1 [Compound 11, (S)-2-(1-{[2-(1-Amino-2-methylpropyl)thiazole-4-carbonyl]amino}-(S)-2-methylpropyl)thiazole-4-carboxylic acid ethyl ester] | 87% | – | –
CC(C)[C@H](N)c1nc(C(=O)N[C@H](c2nc(C(=O)O)cs2)C(C)C)cs1 [Compound 12, (S)-2-(1-{[2-(1-Amino-2-methylpropyl)thiazole-4-carbonyl]amino}-(S)-2-methylpropyl)thiazole-4-carboxylic acid] | 23% | – | –
CCOC(=O)c1csc([C@@H](NC(=O)c2csc([C@@H](NC(=O)c3csc([C@@H](NC(=O)OC(C)(C)C)C(C)C)n3)C(C)C)n2)C(C)C)n1 [Compound 13, (S)-2-(1-{[2-(1-{[2-(1-tert-Butoxycarbonylamino-2-methylpropyl)thiazole-4-carbonyl]amino}-(S)-2-methylpropyl)thiazole-4-carbonyl]amino}-(S)-2-methylpropyl) thiazole-4-carboxylic acid ethyl ester] | – | 91% | –
CC(C)[C@H](NC(=O)OC(C)(C)C)c1nc(C(=O)N[C@H](c2nc(C(=O)N[C@H](c3nc(C(=O)O)cs3)C(C)C)cs2)C(C)C)cs1 [Compound 14, (S)-2-(1-{[2-(1-{[2-(1-tert-Butoxycarbonylamino-2-methylpropyl)thiazole-4-carbonyl]amino}-(S)-2-methylpropyl)thiazole-4-carbonyl]amino}-(S)-2-methylpropyl)thiazole-4-carboxylic acid] | – | 60% | –
CCOC(=O)c1csc([C@@H](NC(=O)c2csc([C@@H](NC(=O)c3csc([C@@H](N)C(C)C)n3)C(C)C)n2)C(C)C)n1 [Compound 15, (S)-2-(1-{[2-(1-{[2-(1-Amino-2-methylpropyl)thiazole-4-carbonyl]amino}-(S)-2-methylpropyl)thiazole-4-carbonyl]amino}-(S)-2-methylpropyl)thiazole-4-carboxylic acid ethyl ester] | – | 91% | –
CCOC(=O)c1csc([C@@H](NC(=O)c2csc([C@@H](NC(=O)c3csc([C@@H](NC(=O)c4csc([C@@H](NC(=O)OC(C)(C)C)C(C)C)n4)C(C)C)n3)C(C)C)n2)C(C)C)n1 [Compound 18, (S)-2-(1-{[2-(1-{[2-(1-{[2-(1-tert-Butoxycarbonylamino-2-methylpropyl)thiazole-4-carbonyl]amino}-(S)-2-methylpropyl)thiazole-4-carbonyl]amino}-(S)-2-methylpropyl)thiazole-4-carbonyl]amino}-(S)-2-methylpropyl)thiazole-4-carboxylic acid ethyl ester] | – | 99% | Decrease of cell based inhibitory activity as compared to homolog 13 ([2]; 10 μM, transport assays): 1.6 fold
CC(C)[C@@H]1NC(=O)c2csc(n2)[C@H](C(C)C)NC(=O)c2csc(n2)[C@H](C(C)C)NC(=O)c2csc(n2)[C@H](C(C)C)NC(=O)c2csc1n2 [Compound 20, Cyclic Tetramer] | – | – | [125I]-IAAP % Inhibition ([1]; tested conc. 10 μM, 4-6 nM [125I]-IAAP, High-Five insect cell membranes): 95%
COc1ccc(CNC(=O)c2csc([C@@H](NC(=O)c3csc([C@@H](NC(=O)OC(C)(C)C)C(C)C)n3)C(C)C)n2)c(OC)c1 [Compound 23, [1-(4-{1-[4-(2,4-Dimethoxybenzylcarbamoyl)thiazol-2-yl]-(S)-2-methylpropylcarbamoyl}thiazol-2-yl)-(S)-2-methylpropyl]carbamic acid tert-butyl ester] | – | 95% | –
CC(C)[C@@H]1NC(=O)c2c[se]c(n2)[C@H](C(C)C)NC(=O)c2c[se]c(n2)[C@H](C(C)C)NC(=O)c2c[se]c1n2 [QZ59Se-SSS] | – | – | Potency relative to corresponding QZ59Se-RRR isomer [3]: four-fold potent
C/C=C/C[C@@H](C)C(=O)[C@H]1C(=O)N[C@@H](C(C)C)C(=O)N(C)CC(=O)N(C)[C@@H](CC(C)C)C(=O)N[C@@H](C(C)C)C(=O)N(C)[C@@H](CC(C)C)C(=O)N[C@@H](C)C(=O)N[C@H](C)C(=O)N(C)[C@@H](CC(C)C)C(=O)N(C)[C@@H](CC(C)C)C(=O)N(C)[C@@H](C(C)C)C(=O)N1C [valspodar] | – | – | Oral bioavailability [4]: very restricted oral bioavailability
